Target: SOS1/KRAS WT (Homo sapiens (Human), UniProt Q07889)
Assay: SOS1/KRAS WT HTRF binding assay (FRET-based protein-protein interaction)
Conditions: inhibition of His6-SOS1 (aa564-1049, 40 nM) binding to GST-KRAS-WT (aa1-188, 40 nM); at least two independent replicates; read-out: SOS1/KRAS WT HTRF Binding assay pIC50 (converted)
How it was run: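 GST-KRAS WT (aa1-188, 40 nM) and His6-SOS1 exchange domain (aa564-1049, 40 nM) were incubated 60 min at room temperature with compound dose response in HEPES pH7.3 buffer with 10 mM EDTA and 100 mM KF. Anti-GST-Eu(K)/anti-6His-XL665 HTRF was read after 4 hr, and IC50 came from a four-parameter fit (≥2 replicates).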

Chain of SOS1/KRAS WT (Q07889 564-1049): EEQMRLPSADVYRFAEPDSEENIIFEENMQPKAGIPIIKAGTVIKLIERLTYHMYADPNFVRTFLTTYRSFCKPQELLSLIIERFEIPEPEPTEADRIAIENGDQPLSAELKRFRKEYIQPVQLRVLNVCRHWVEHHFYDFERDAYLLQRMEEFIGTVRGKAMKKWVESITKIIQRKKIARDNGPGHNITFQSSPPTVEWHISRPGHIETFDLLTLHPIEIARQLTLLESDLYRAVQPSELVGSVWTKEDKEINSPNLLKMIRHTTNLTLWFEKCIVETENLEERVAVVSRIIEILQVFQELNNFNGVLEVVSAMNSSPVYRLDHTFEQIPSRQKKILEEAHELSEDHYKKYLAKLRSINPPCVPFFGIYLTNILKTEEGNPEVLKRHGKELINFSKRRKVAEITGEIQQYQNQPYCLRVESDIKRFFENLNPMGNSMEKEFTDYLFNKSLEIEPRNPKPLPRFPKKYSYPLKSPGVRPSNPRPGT

| IC50 | SMILES |
| --- | --- |
| 14.5 nM | COC1(C)C(=O)N(C)c2cc3c(N[C@H](C)c4cc(F)cc(C(F)(F)C(C)(C)O)c4)nnc(C)c3cc21 (stereo partly drawn) [Compound 175, 3-methoxy-1,3,5-trimethyl-8-[[(1R)-1-[3-(1,1-difluoro-2-hydroxy-2-methyl-propyl)-5-fluoro-phenyl]ethyl]amino]pyrrolo[2,3-g]phthalazin-2-one] |
| 10.7 nM | COC1(C)C(=O)N(C)c2cc3c(C)nnc(N[C@H](C)c4cccc(C(F)(F)CO)c4F)c3cc21 (stereo partly drawn) [Compound 176, 3-methoxy-1,3,8-trimethyl-5-[[(1R)-1-[3-(1,1-difluoro-2-hydroxy-ethyl)-2-fluoro-phenyl]ethyl]amino]pyrrolo[3,2-g]phthalazin-2-one] |
| 9.77 nM | COC1(C)C(=O)N(C)c2cc3c(C)nnc(N[C@H](C)c4cccc(C(F)(F)CO)c4C)c3cc21 (stereo partly drawn) [Compound 177, 3-methoxy-1,3,8-trimethyl-5-[[(1R)-1-[3-(1,1-difluoro-2-hydroxy-ethyl)-2-methyl-phenyl]ethyl]amino]pyrrolo[3,2-g]phthalazin-2-one] |
| 16.6 nM | COC1(C)C(=O)N(C)c2cc3c(C)nnc(N[C@H](C)c4cccc(C(F)(F)CO)c4)c3cc21 (stereo partly drawn) [Compound 178, 3-methoxy-1,3,8-trimethyl-5-[[(1R)-1-[3-(1,1-difluoro-2-hydroxy-ethyl)phenyl]ethyl]amino]pyrrolo [3,2-g]phthalazin-2-one] |
| 10.2 nM | COC1(C)C(=O)N(C)c2cc3c(C)nnc(N[C@H](C)c4cccc(C(F)(F)C(C)(C)O)c4F)c3cc21 (stereo partly drawn) [Compound 179, 3-methoxy-1,3,8-trimethyl-5-[[(1R)-1-[3-(1,1-difluoro-2-hydroxy-2-methyl-propyl)-2-fluoro-phenyl]ethyl]amino]pyrrolo[3,2-g]phthalazin-2-one] |
| 12 nM | COC1(C)C(=O)N(C)c2cc3c(C)nnc(N[C@H](C)c4cccc(C(F)(F)C(C)(C)O)c4)c3cc21 (stereo partly drawn) [Compound 180, 3-methoxy-1,3,8-trimethyl-5-[[(1R)-1-[3-(1,1-difluoro-2-hydroxy-2-methyl-propyl)phenyl]ethyl]amino]pyrrolo [3,2-g]phthalazin-2-one] |
| 13.2 nM | COC1(C)C(=O)N(C)c2cc3c(N[C@H](C)c4cc(F)cc(C(F)(F)C(C)(C)O)c4C)nnc(C)c3cc21 (stereo partly drawn) [Compound 181, 3-methoxy-1,3,5-trimethyl-8-[[(1R)-1-[3-(1,1-difluoro-2-hydroxy-2-methyl-propyl)-5-fluoro-2-methyl-phenyl]ethyl]amino]pyrrolo[2,3-g]phthalazin-2-one] |
| 9.77 nM | COC1(C)C(=O)N(C)c2cc3c(N[C@H](C)c4cc(C)cc(C(F)(F)CO)c4C)nnc(C)c3cc21 (stereo partly drawn) [Compound 182, 3-methoxy-1,3,5-trimethyl-8-[[(1R)-1-[3-(1,1-difluoro-2-hydroxy-ethyl)-2,5-dimethyl-phenyl]ethyl]amino]pyrrolo[2,3-g]phthalazin-2-one] |
| 11 nM | COC1(C)C(=O)N(C)c2cc3c(N[C@H](C)c4cc(F)cc(C(F)(F)CO)c4C)nnc(C)c3cc21 (stereo partly drawn) [Compound 183, 3-methoxy-1,3,5-trimethyl-8-[[(1R)-1-[3-(1,1-difluoro-2-hydroxy-ethyl)-5-fluoro-2-methyl-phenyl]ethyl]amino]pyrrolo[2,3-g]phthalazin-2-one] |
| 14.8 nM | CCOC1(C)C(=O)N(C)c2cc3c(C)nnc(N[C@H](C)c4cccc(C(F)(F)C(C)(C)O)c4)c3cc21 (stereo partly drawn) [Compound 184, 3-ethoxy-1,3,8-trimethyl-5-[[(1R)-1-[3-(1,1-difluoro-2-hydroxy-2-methyl-propyl)phenyl]ethyl]amino]pyrrolo [3,2-g]phthalazin-2-one] |
| 24.5 nM | CCOC1(C)C(=O)N(C)c2cc3c(C)nnc(N[C@H](C)c4cccc(C(F)(F)C(C)(C)O)c4C)c3cc21 (stereo partly drawn) [Compound 185, 3-ethoxy-1,3,8-trimethyl-5-[[(1R)-1-[3-(1,1-difluoro-2-hydroxy-2-methyl-propyl)-2-methyl-phenyl]ethyl]amino]pyrrolo[3,2-g]phthalazin-2-one] |
| 8.32 nM | Cc1c([C@@H](C)Nc2nnc(C)c3cc4c(cc23)N(C)C(=O)C42CCCC2)cccc1C(F)(F)C(C)(C)O [Compound 186, 1′,5′-dimethyl-8′-[[(1R)-1-[3-(1,1-difluoro-2-hydroxy-2-methyl-propyl)-2-methyl-phenyl]ethyl]amino]spiro [cyclopentane-1,3′-pyrrolo[2,3-g]phthalazine]-2′-one] |
| 21.9 nM | Cc1nnc(N[C@H](C)c2cc(F)cc(C(F)(F)CO)c2)c2cc3c(cc12)C1(CCCC1)C(=O)N3C [Compound 187, 1′,5′-dimethyl-8′-[[(1R)-1-[3-(1,1-difluoro-2-hydroxy-ethyl)-5-fluoro-phenyl]ethyl]amino]spiro [cyclopentane-1,3′-pyrrolo[2,3-g]phthalazine]-2′-one] |
| 9.33 nM | Cc1nnc(N[C@H](C)c2cccc(C(F)(F)C(C)(C)O)c2)c2cc3c(cc12)C1(CCCC1)C(=O)N3C [Compound 188, 1′,5′-dimethyl-8′-[[(1R)-1-[3-(1,1-difluoro-2-hydroxy-2-methyl-propyl)phenyl]ethyl]amino]spiro [cyclopentane-1,3′-pyrrolo[2,3-g]phthalazine]-2′-one] |
| 6.76 nM | Cc1nnc(N[C@H](C)c2cccc(C(F)(F)CO)c2F)c2cc3c(cc12)C1(CCCC1)C(=O)N3C [Compound 189, 1′,5′-dimethyl-8′-[[(1R)-1-[3-(1,1-difluoro-2-hydroxy-ethyl)-2-fluoro-phenyl]ethyl]amino]spiro[cyclopentane-1,3′-pyrrolo[2,3-g]phthalazine]-2′-one] |
| 16.6 nM | CCOC1(C)C(=O)N(C)c2cc3c(C)nnc(N[C@H](C)c4cccc(C(F)(F)C(C)(C)O)c4F)c3cc21 (stereo partly drawn) [Compound 190, 3-ethoxy-1,3,8-trimethyl-5-[[(1R)-1-[3-(1,1-difluoro-2-hydroxy-2-methyl-propyl)-2-fluoro-phenyl]ethyl]amino]pyrrolo[3,2-g]phthalazin-2-one] |
| 23.4 nM | CCC1(OC)C(=O)N(C)c2cc3c(C)nnc(N[C@H](C)c4cccc(C(F)(F)C(C)(C)O)c4C)c3cc21 (stereo partly drawn) [Compound 191, 5-[[(1R)-1-[3-(1,1-difluoro-2-hydroxy-2-methyl-propyl)-2-methyl-phenyl]ethyl]amino]-3-ethyl-3-methoxy-1,8-dimethyl-pyrrolo[2,3-g]phthalazin-2-one] |
| 16.2 nM | CCC1(OC)C(=O)N(C)c2cc3c(C)nnc(N[C@H](C)c4cccc(C(F)(F)C(C)(C)O)c4)c3cc21 (stereo partly drawn) [Compound 192, 5-[[(1R)-1-[3-(1,1-difluoro-2-hydroxy-2-methyl-propyl)phenyl]ethyl]amino]-3-ethyl-3-methoxy-1,8-dimethyl-pyrrolo[2,3-g]phthalazin-2-one] |
| 8.71 nM | Cc1c([C@@H](C)Nc2nnc(C)c3cc4c(cc23)N(C)C(=O)C42CCCC2)cccc1C(F)(F)CO [Compound 193, 1′,5′-dimethyl-8′-[[(1R)-1-[3-(1,1-difluoro-2-hydroxy-ethyl)-2-methyl-phenyl]ethyl]amino]spiro[cyclopentane-1,3′-pyrrolo[2,3-g]phthalazine]-2′-one] |
| 8.51 nM | Cc1nnc(N[C@H](C)c2cccc(C(F)(F)C(C)(C)O)c2F)c2cc3c(cc12)C1(CCCC1)C(=O)N3C [Compound 194, 1′,5′-dimethyl-8′-[[(1R)-1-[3-(1,1-difluoro-2-hydroxy-2-methyl-propyl)-2-fluoro-phenyl]ethyl]amino]spiro [cyclopentane-1,3′-pyrrolo[2,3-g]phthalazine]-2′-one] |
| 20.9 nM | CCOC1(C)C(=O)N(C)c2cc3c(C)nnc(N[C@H](C)c4cccc(C(F)(F)CO)c4)c3cc21 (stereo partly drawn) [Compound 195, 3-ethoxy-1,3,8-trimethyl-5-[[(1R)-1-[3-(1,1-difluoro-2-hydroxy-ethyl)phenyl]ethyl]amino]pyrrolo [3,2-g]phthalazin-2-one] |
| 25.1 nM | CCC1(OC)C(=O)N(C)c2cc3c(C)nnc(N[C@H](C)c4cccc(C(F)(F)CO)c4)c3cc21 (stereo partly drawn) [Compound 196, 5-[[(1R)-1-[3-(1,1-difluoro-2-hydroxy-ethyl)phenyl]ethyl]amino]-3-ethyl-3-methoxy-1,8-dimethyl-pyrrolo[2,3-g]phthalazin-2-one] |
| 14.5 nM | CCC1(OC)C(=O)N(C)c2cc3c(C)nnc(N[C@H](C)c4cccc(C(F)(F)CO)c4F)c3cc21 (stereo partly drawn) [Compound 197, 5-[[(1R)-1-[3-(1,1-difluoro-2-hydroxy-ethyl)-2-fluoro-phenyl]ethyl]amino]-3-ethyl-3-methoxy-1,8-dimethyl-pyrrolo[2,3-g]phthalazin-2-one] |
| 19.5 nM | CCC1(OC)C(=O)N(C)c2cc3c(C)nnc(N[C@H](C)c4cccc(C(F)(F)CO)c4C)c3cc21 (stereo partly drawn) [Compound 198, 5-[[(1R)-1-[3-(1,1-difluoro-2-hydroxy-ethyl)-2-methyl-phenyl]ethyl]amino]-3-ethyl-3-methoxy-1,8-dimethyl-pyrrolo[2,3-g]phthalazin-2-one] |
| 21.9 nM | CCOC1(C)C(=O)N(C)c2cc3c(C)nnc(N[C@H](C)c4cccc(C(F)(F)CO)c4C)c3cc21 (stereo partly drawn) [Compound 199, 3-ethoxy-1,3,8-trimethyl-5-[[(1R)-1-[3-(1,1-difluoro-2-hydroxy-ethyl)-2-methyl-phenyl]ethyl]amino]pyrrolo[3,2-g]phthalazin-2-one] |
| 13.2 nM | CCc1nnc(N[C@H](C)c2cccc(C(F)(F)C(C)(C)O)c2F)c2cc3c(cc12)C(C)(OC)C(=O)N3C (stereo partly drawn) [Compound 200, 5-ethyl-3-methoxy-1,3-dimethyl-8-[[(1R)-1-[3-(1,1-difluoro-2-hydroxy-2-methyl-propyl)-2-fluoro-phenyl]ethyl]amino]pyrrolo[2,3-g]phthalazin-2-one] |
| 18.2 nM | CCOC1(C)C(=O)N(C)c2cc3c(C)nnc(N[C@H](C)c4cccc(C(F)(F)CO)c4F)c3cc21 (stereo partly drawn) [Compound 201, 3-ethoxy-1,3,8-trimethyl-5-[[(1R)-1-[3-(1,1-difluoro-2-hydroxy-ethyl)-2-fluoro-phenyl]ethyl]amino]pyrrolo[3,2-g]phthalazin-2-one] |

— US20250197407A1 (Jazz Pharmaceuticals Ireland Limited, priority 2022, published 2025)
